One compound from patent publication US12018093B2, “Hemiasterlin derivatives and antibody-drug conjugates including same” (priority 2017, dated 2024) can be followed below.

Entries after “also recorded” stand apart in the source; their conditions may differ. A value given as a limit tells only on which side of the number the result lay.

Series [1] relates to Karpas-299 cells. Kind of series: Cellular toxicity test (1), CellTiter-Glo, Karpas-299. The settings on record: Homo sapiens, 96 h, cultured 4 days, cell viability. Format: cell-based. The procedure: (§1) SU-DHL-1 cells (American Type Culture Collection, hereinafter, ATCC) and Karpas-299 cells (European Collection of Authenticated Cell Cultures, hereinafter, ECACC), which are human lymphoma cell lines, were cultured in RPMI 1640 (GIBCO) containing 10% fetal bovine serum (MP Biomedicals) (hereinafter, referred to as the “culture medium” in this test). SU-DHL-1 cells and Karpas-299 cells were prepared to be 2×10^6 cells/mL in the culture medium, and were added to a 96 well microplate for cell culturing in an amount of 50 μL for each well. Compounds of Examples or hemiasterlin 4 times diluted with the culture medium in 8 stages were added to the microplate in an amount of 50 μL for each well. To wells to which the test substance was not added, the culture medium was added in an amount of 50 μL for each well. These were cultured at 37 degree under 5% CO2 for 4 days. After culturing, the microplate was taken out from the incubator, and was left at rest at room temperature for 10 minutes. To each well, 50 μL of CellTiter-Glo Luminescent Cell Viability Assay (Promega) was added, and the resultant mixture was stirred. This mixture was incubated at a dark place for 20 minutes. Using a microplate luminometer, luminescence at each well was measured, thereby calculating the cell viability for each concentration of the test substance. From the cell viability, the IC50 value of the test substance was determined.
(§2) The IC50 value was calculated by the following formula: IC50(nM)=antilog(LOG10(a/b)×(e−d)/(c−d)+LOG10b) • a: concentration a of test substance • b: concentration b of test substance • c: cell viability upon adding test substance with concentration a • d: cell viability upon adding test substance with concentration b • e: intermediate value between maximum and minimum among cell viabilities upon • adding test substances with different concentrations (a and b are concentrations crossing the cell viability e, and a>b is indicated).
(§3) The cell viability at each concentration was calculated by the following formula: Cell Viability (%)=a′/b′×100 • a′: mean value of luminescence amount of wells to which test substance was added (n=6) • b′: mean value of luminescence amount of wells to which test substance was not added (n=6) • (n represents the number of evaluations performed per test substance concentration).
On the technique in general: Cellular ATP, detected with luciferase, serves as a proxy for viable cell number.

Series [2] can be described thus: in vitro. The settings on record: PAMPA, pH 7.4. As for the experimental part:
By the parallel artificial membrane permeability assay (PAMPA), the membrane permeability of compounds of Examples was examined as follows: To the donor plate, System solution (pION inc.) and GIT Lipid-0 (pION inc.) were added in an amount of 200 μL and 4 μL for each well, respectively. To the acceptor plate, Acceptor Sink Buffer (pION inc.) was added in an amount of 200 μL. Both plates were superposed and incubated at 37° C. for 4 hours, and then, UVs in the solutions on the side of acceptor and on the side of donor were measured with an UV plate reader (190 to 500 nm). Compounds with poor UV absorption were measured by LC-MS. The permeability coefficient Pe (10^−6 cm/sec) of the drug was calculated by the following formula.
(In general: The PAMPA barrier holds no transporters, so it reflects passive diffusion.)

Series [3] deals with SU-DHL-1 cells. Kind of series: Cellular toxicity test (1), CellTiter-Glo, SU-DHL-1. The settings on record: Homo sapiens, 96 h, cultured 4 days, cell viability. Format: cell-based. As for the experimental part: as §1, §2, §3
A short description of series [4]: Pharmacokinetic evaluation test using mice. The series is classed as in vivo. The procedure:
A pharmacokinetic evaluation test was performed by single intravenous administration of Example 4 at a dose of 1.0 mg/kg to mice. A calibration curve was made from measurements of Example 4 with known concentration, and by interpolating measurements of each specimen to this, the amount of the compound contained in unit volume of each plasma was calculated using LC-MS. Pharmacokinetics of compound 14 and hemiasterlin were similarly evaluated.
(n.d. in the tables means less than the detection limit value (0.5 ng/mL).)

For series [5], the target named is porcine tubulin (Sus scrofa, UniProt P02550+P02554). The series can be described thus: Activity for inhibiting microtubule polymerization using porcine tubulins (1). As to conditions: compound 0.91 μM; absorbance at 340 nm, 37° C.; FIG. 1 and FIG. 2. Format: biochemical. Further details: purchased Cytoskeleton Inc. BK006P.
Series [6] relates to SK-BR-3 cells. Kind of series: Cellular toxicity test (2), CellTiter-Glo, SK-BR-3. Format: cell-based. As to conditions: Homo sapiens, 72 h, cultured 3 days, cell viability. The procedure: as §2, §3
SK-BR-3 cells (ATCC), which are a human breast cancer cell line, were cultured in McCoy's 5A (GIBCO) containing 10% fetal bovine serum (MP Biomedicals) (hereinafter, referred to as the “culture medium” in this test). SK-BR-3 cells were prepared to be 2×10^6 cells/mL in the culture medium, added to a 96 well microplate for cell culturing in an amount of 50 μL for each well, and cultured at 37 degree under 5% CO2 overnight, and then, compounds of Examples or hemiasterlin 4 times diluted with the culture medium in 8 stages were added to the microplate in an amount of 50 μL for each well. To wells to which the test substance was not added, the culture medium was added in an amount of 50 μL for each well. These were cultured at 37 degree under 5% CO2 for 3 days. After culturing, the microplate was taken out from the incubator, and was left at rest at room temperature for 10 minutes. 50 μL of CellTiter-Glo Luminescent Cell Viability Assay (Promega) was added, and the resultant mixture was stirred. This mixture was incubated at a dark place for 20 minutes. Using a microplate luminometer, luminescence at each well was measured, thereby calculating the cell viability for each concentration of the test substance. The IC50 value was calculated in accordance with the method described in Test Example 3.

Sequence of porcine tubulin (P02554 whole entry): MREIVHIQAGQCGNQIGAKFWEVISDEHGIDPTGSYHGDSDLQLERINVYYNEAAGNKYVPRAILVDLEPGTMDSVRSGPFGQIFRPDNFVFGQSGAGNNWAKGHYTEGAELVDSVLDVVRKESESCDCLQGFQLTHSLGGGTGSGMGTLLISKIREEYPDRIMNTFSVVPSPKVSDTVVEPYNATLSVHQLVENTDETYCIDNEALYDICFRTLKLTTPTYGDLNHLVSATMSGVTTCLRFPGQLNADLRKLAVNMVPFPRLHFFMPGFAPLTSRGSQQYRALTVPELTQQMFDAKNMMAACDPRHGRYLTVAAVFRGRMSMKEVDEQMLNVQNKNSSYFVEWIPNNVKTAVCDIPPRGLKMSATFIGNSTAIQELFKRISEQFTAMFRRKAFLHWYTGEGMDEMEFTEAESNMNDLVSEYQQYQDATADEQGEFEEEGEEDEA
Sequence of porcine tubulin (P02550 whole entry): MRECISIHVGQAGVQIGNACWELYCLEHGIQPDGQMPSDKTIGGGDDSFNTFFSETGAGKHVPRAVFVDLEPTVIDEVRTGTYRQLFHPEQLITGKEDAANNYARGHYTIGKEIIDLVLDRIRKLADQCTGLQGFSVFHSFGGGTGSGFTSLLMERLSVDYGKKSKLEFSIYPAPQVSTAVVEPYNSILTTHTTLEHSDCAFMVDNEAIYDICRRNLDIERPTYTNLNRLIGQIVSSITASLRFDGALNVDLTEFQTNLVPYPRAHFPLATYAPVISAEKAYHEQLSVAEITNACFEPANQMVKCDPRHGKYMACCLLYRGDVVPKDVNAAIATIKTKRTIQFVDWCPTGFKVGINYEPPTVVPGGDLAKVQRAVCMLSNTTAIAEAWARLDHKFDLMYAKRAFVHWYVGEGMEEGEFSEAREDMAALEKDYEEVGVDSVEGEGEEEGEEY

Regarding `CCOC(=O)[C@@H](CCC(=O)O)NC(=O)/C(C)=C/[C@H](C(C)C)N(C)C(=O)[C@@H](NC(=O)[C@@H](NC)C(C)(C)c1cn(C)c2ccccc12)C(C)(C)C` [Example 14], the IC50 (in general, the concentration that inhibits the measured activity by half) in series [1] was 0.12 nM; in series [3] it was 0.24 nM; in series [6] it was 1.03 nM. For the same compound, the Papp (as a rule, the rate of passage across a membrane or cell layer, normalised by area and donor concentration) in series [2] came to 4.5 ×10⁻⁶ cm/s. The half-life (as a rule, the time needed for the level to fall by half in the phase considered) in series [4] (mouse, plasma, 1 mg/kg, single intravenous administration) was below 30 min. The “Blood concentration of Example 14” value in series [4] (single intravenous administration of Example 14, 0.5 hr, animal 1) is “n.d. (less than the detection limit value (0.5 ng/mL))”; in series [4] (single intravenous administration of Example 14, 0.5 hr, animal 2), “n.d. (less than the detection limit value (0.5 ng/mL))”; in series [4] (single intravenous administration of Example 14, 0.5 hr, animal 3) it was “n.d. (less than the detection limit value (0.5 ng/mL))”; in series [4] (single intravenous administration of Example 14, 2 hr, animal 1), “n.d. (less than the detection limit value (0.5 ng/mL))”; in series [4] (single intravenous administration of Example 14, 2 hr, animal 2) it was “n.d. (less than the detection limit value (0.5 ng/mL))”; in series [4] (single intravenous administration of Example 14, 2 hr, animal 3), “n.d. (less than the detection limit value (0.5 ng/mL))”. Moreover, the “Blood concentration of Example 14” value is listed as “n.d. (less than the detection limit value (0.5 ng/mL))” in series [4] (single intravenous administration of Example 14, 6 hr, animal 1); “n.d. (less than the detection limit value (0.5 ng/mL))” in series [4] (single intravenous administration of Example 14, 6 hr, animal 2); “n.d. (less than the detection limit value (0.5 ng/mL))” in series [4] (single intravenous administration of Example 14, 6 hr, animal 3); “n.d. (less than the detection limit value (0.5 ng/mL))” in series [4] (single intravenous administration of Example 14, 24 hr, animal 1); “n.d. (less than the detection limit value (0.5 ng/mL))” in series [4] (single intravenous administration of Example 14, 24 hr, animal 2); “n.d. (less than the detection limit value (0.5 ng/mL))” in series [4] (single intravenous administration of Example 14, 24 hr, animal 3). Besides, the “Blood concentration of Example 14, mean” value in series [4] (single intravenous administration of Example 14, 0.5 hr) is reported as “n.d. (less than the detection limit value (0.5 ng/mL))”; in series [4] (single intravenous administration of Example 14, 2 hr) it was “n.d. (less than the detection limit value (0.5 ng/mL))”; in series [4] (single intravenous administration of Example 14, 6 hr), “n.d. (less than the detection limit value (0.5 ng/mL))”; in series [4] (single intravenous administration of Example 14, 24 hr), “n.d. (less than the detection limit value (0.5 ng/mL))”. For the same compound, the “activity for inhibiting microtubule polymerization” value in series [5] is on record as “exhibited activities for inhibiting microtubule polymerization; also recorded: exhibited polymerization inhibitory activity concentration-dependently”.
